# Where a name gives a salt, the structure may show the parent alone.
# Legend:
# [1] = test system: opioid dependent participants; test: Treatment of heroin addiction: clinical rating of withdrawal symptoms; assay type: in vivo, human
# From the text: (§1) 1.1. Subject selection criteria: 60 participants, in the range of 18-50 years of age, male or female, and opioid dependent as diagnosed according to the DSM-IV diagnostic criteria for opioid dependence.
# Subject exclusion criteria: candidates with serious heart disease, liver or kidney dysfunction, mental illness, serious bodily weakness, or pregnant or lactating women were excluded.
# (§2) 1.3. Grouping: 60 cases of participants were randomly divided into two groups according to the order of admission: the test group and the methadone control group.
# (§3) The control group used methadone hydrochloride oral medication of 10 mg/10 ml each. Comparison method: according to the heroin-dependent self-restraining degree of 7-10 days, the treatment was designed to be 10 days long for both groups. […] The treatment concluded on day 10. Methadone control group was admitted 50-60 mg methadone on the first day; starting on day 2, the methadone dose was reduced by 10 mg per day each day; starting on day 6, the methadone dose was reduced by 2 mg per day each day. The treatment concluded on day 10. Supplementary drugs used in the two groups included normal doses of clonazepam tablets (clonazopam), alprazolam tablets (Alprazoli) once a day at night.
# 1.5.1. Clinical rating used indicators of withdrawal, which has 20 indicators including craving, anxiety, agitation, nausea, vomiting, hot face, chills, or alternating chills and fever, yawning, runny nose, tears, sweating, drowsiness, cutis anserina, tremors, bone and muscle pain, anorexia, abdominal pain, diarrhea, insomnia, and curled position. The rating was done daily on the day before the treatment and on each day during the treatment. The severity of withdrawal symptoms was scored as level 0-4 (five levels in total). Scoring for each participant was done at 9:00 am every day.
# (§4) 1.6. Statistical analysis of the two groups: the general characteristics, withdrawal symptoms, and anxiety symptoms of the two groups, were statistically analyzed using the t test, chi-square test and Fisher's Exact Test, using suitable software such as SPSS 7.0. The t test was applied to the symptom data of the two groups, and chi-square test or Fisher's Exact Test was applied to the count data.
# [2] = test system: opioid dependent participants; test: Treatment of heroin addiction: adverse reactions and side effects; conditions: 10-day treatment
# Procedure: as §1, §2, §3
# 1.5.2. Recordation of adverse reactions: adverse reactions were evaluated in the withdrawal symptom measurement table, using a total of 10 indicators that include: dizziness, syncope, malaise, nausea, vomiting, sweating, dry mouth, drowsiness, blurred vision, disturbance of consciousness. The recordation was done each morning at 9:00.
# as §4
# [3] = test system: opioid dependent participants; test: Treatment of heroin addiction: degree of anxiety by Hamilton Anxiety Scale (HAMA); assay type: in vivo, human; conditions: Day 5
# Procedure: as §1, §2, §3
# 1.5.3. […]
# 1.6. Statistical analysis of the two groups: the general characteristics, withdrawal symptoms, and anxiety symptoms of the two groups, were statistically analyzed using the t test, chi-square test and Fisher's Exact Test, using suitable software such as SPSS 7.0. […]
smiles,measurement,setting,value
"CCC(=O)C(CC(C)N(C)C)(c1ccccc1)c1ccccc1 (stereo not drawn) [Methadone, methadone hydrochloride]",withdrawal symptoms (x ± s),"[1]; Before treatment, 20 indicators scored level 0-4, 30 per group",56.03 ± 1.80
same,withdrawal symptoms (x ± s),[1]; Day 1 of treatment,5.01 ± 0.83
same,withdrawal symptoms (x ± s),[1]; Day 2 of treatment,27.78 ± 1.40
same,withdrawal symptoms (x ± s),[1]; Day 3 of treatment,19.71 ± 1.13
same,withdrawal symptoms (x ± s),[1]; Day 4 of treatment,13.54 ± 1.01
same,withdrawal symptoms (x ± s),[1]; Day 5 of treatment,8.27 ± 0.28
same,withdrawal symptoms (x ± s),[1]; Day 6 of treatment,3.84 ± 0.06
same,withdrawal symptoms (x ± s),[1]; Day 7 of treatment,3.26 ± 0.27
same,withdrawal symptoms (x ± s),[1]; Day 8 of treatment,3.84 ± 0.07
same,withdrawal symptoms (x ± s),[1]; Day 9 of treatment,3.82 ± 0.18
same,withdrawal symptoms (x ± s),[1]; Day 10 of treatment,4.80 ± 0.11
same,Adverse Reactions: Abdominal pain,"[2]; count, 30 per group",6
same,Adverse Reactions: Chills,"[2]; count, 30 per group",7
same,Adverse Reactions: Diarrhea,"[2]; count, 30 per group",3
same,Adverse Reactions: Runny nose,"[2]; count, 30 per group",8
same,Adverse Reactions: Tears,"[2]; count, 30 per group",8
same,Side effects,[2]; heroin addiction study,"dizziness, malaise, nausea, sweating and heart palpitations"
same,emotional changes measured by HAMA (x ± s),[3],8.83 ± 0.45
